According to paper PMC4413193, “3-[4-(1H-Indol-3-yl)-1,3-thiazol-2-yl]-1H-pyrrolo[2,3-b]pyridines, Nortopsentin Analogues with Antiproliferative Activity” (Marine Drugs, 2015):

Assays:
MALME-3M = assay: NCI-60 in vitro tumor cell growth inhibition, MALME-3M (melanoma); assay type: cell-based; settings: Homo sapiens, five concentration levels
Method: (§1) All the synthesized thiazoles 3a–k were evaluated by the National Cancer Institute (Bethesda MD) for cytotoxicity against the NCI-60 cell line panel using standard protocols. Initially, the selected derivatives 3c,d,g,h,j,k were tested at a single dose (10^−5 M) on the full panel of approximately 60 human tumor cell lines derived from 9 human cancer cell types, that have been grouped in disease sub-panels including leukemia, non-small-cell lung, colon, central nervous system (CNS), melanoma, ovarian, renal, prostate and breast cancers (data not shown). Compounds 3d and 3k were further selected for full evaluation at five concentration levels (10^−4–10^−8 M).
(§2) The antitumor activity of compounds 3d and 3k was given by three parameters for each cell line: GI50 (the molar concentration of the compound that inhibits 50% net cell growth), TGI (the molar concentration of the compound leading to total inhibition of net cell growth), and LC50 (the molar concentration of the compound that induces 50% net cell death). The average values of mean graph midpoint (MG_MID) were calculated for each of these parameters.

HOP-62 = assay: NCI-60 in vitro tumor cell growth inhibition, HOP-62 (non-small cell lung cancer); assay type: cell-based; settings: Homo sapiens, five concentration levels
Method: as §1, §2

SNB-19 = assay: NCI-60 in vitro tumor cell growth inhibition, SNB-19 (CNS cancer); assay type: cell-based; settings: Homo sapiens, five concentration levels
Method: as §1, §2

HL-60(TB) = assay: NCI-60 in vitro tumor cell growth inhibition, HL-60(TB) (leukemia); assay type: cell-based; settings: Homo sapiens, five concentration levels 10^−4–10^−8 M
Method: as §1, §2

A498 = assay: NCI-60 in vitro tumor cell growth inhibition, A498 (renal cancer); assay type: cell-based; settings: Homo sapiens, five concentration levels
Method: as §1, §2

OVCAR-4 = assay: NCI-60 in vitro tumor cell growth inhibition, OVCAR-4 (ovarian cancer); assay type: cell-based; settings: Homo sapiens, five concentration levels
Method: as §1, §2

LOX IMVI = assay: NCI-60 in vitro tumor cell growth inhibition, LOX IMVI (melanoma); assay type: cell-based; settings: Homo sapiens, five concentration levels
Method: as §1, §2

CAKI-1 = assay: NCI-60 in vitro tumor cell growth inhibition, CAKI-1 (renal cancer); assay type: cell-based; settings: Homo sapiens, five concentration levels
Method: as §1, §2

786-0 = assay: NCI-60 in vitro tumor cell growth inhibition, 786-0 (renal cancer); assay type: cell-based; settings: Homo sapiens, five concentration levels
Method: as §1, §2

SF-268 = assay: NCI-60 in vitro tumor cell growth inhibition, SF-268 (CNS cancer); assay type: cell-based; settings: Homo sapiens, five concentration levels
Method: as §1, §2

COLO-205 = assay: NCI-60 in vitro tumor cell growth inhibition, COLO-205 (colon cancer); assay type: cell-based; settings: Homo sapiens, five concentration levels
Method: as §1, §2

CCRF-CEM = assay: NCI-60 in vitro tumor cell growth inhibition, CCRF-CEM (leukemia); assay type: cell-based; settings: Homo sapiens, five concentration levels 10^−4–10^−8 M
Method: as §1, §2

NCI-H23 = assay: NCI-60 in vitro tumor cell growth inhibition, NCI-H23 (non-small cell lung cancer); assay type: cell-based; settings: Homo sapiens, five concentration levels
Method: as §1, §2

MOLT-4 = assay: NCI-60 in vitro tumor cell growth inhibition, MOLT-4 (leukemia); assay type: cell-based; settings: Homo sapiens, five concentration levels 10^−4–10^−8 M
Method: as §1, §2

SF-539 = assay: NCI-60 in vitro tumor cell growth inhibition, SF-539 (CNS cancer); assay type: cell-based; settings: Homo sapiens, five concentration levels
Method: as §1, §2

SK-MEL-28 = assay: NCI-60 in vitro tumor cell growth inhibition, SK-MEL-28 (melanoma); assay type: cell-based; settings: Homo sapiens, five concentration levels
Method: as §1, §2

K-562 = assay: NCI-60 in vitro tumor cell growth inhibition, K-562 (leukemia); assay type: cell-based; settings: Homo sapiens, K562, five concentration levels 10^−4–10^−8 M
Method: as §1, §2

NCI/ADR-RES = assay: NCI-60 in vitro tumor cell growth inhibition, NCI/ADR-RES (ovarian cancer); assay type: cell-based; settings: Homo sapiens, five concentration levels
Method: as §1, §2

NCI-H460 = assay: NCI-60 in vitro tumor cell growth inhibition, NCI-H460 (non-small cell lung cancer); assay type: cell-based; settings: Homo sapiens, five concentration levels
Method: as §1, §2

SK-MEL-2 = assay: NCI-60 in vitro tumor cell growth inhibition, SK-MEL-2 (melanoma); assay type: cell-based; settings: Homo sapiens, five concentration levels
Method: as §1, §2

UACC-257 = assay: NCI-60 in vitro tumor cell growth inhibition, UACC-257 (melanoma); assay type: cell-based; settings: Homo sapiens, five concentration levels
Method: as §1, §2

HOP-92 = assay: NCI-60 in vitro tumor cell growth inhibition, HOP-92 (non-small cell lung cancer); assay type: cell-based; settings: Homo sapiens, five concentration levels
Method: as §1, §2

MDA-MB-435 = assay: NCI-60 in vitro tumor cell growth inhibition, MDA-MB-435 (melanoma); assay type: cell-based; settings: Homo sapiens, five concentration levels
Method: as §1, §2

HS 578T = assay: NCI-60 in vitro tumor cell growth inhibition, HS 578T (breast cancer); assay type: cell-based; settings: Homo sapiens, five concentration levels
Method: as §1, §2

RXF393 = assay: NCI-60 in vitro tumor cell growth inhibition, RXF393 (renal cancer); assay type: cell-based; settings: Homo sapiens, RXF 393, five concentration levels
Method: as §1, §2

UACC-62 = assay: NCI-60 in vitro tumor cell growth inhibition, UACC-62 (melanoma); assay type: cell-based; settings: Homo sapiens, five concentration levels
Method: as §1, §2

SR = assay: NCI-60 in vitro tumor cell growth inhibition, SR (leukemia); assay type: cell-based; settings: Homo sapiens, five concentration levels 10^−4–10^−8 M
Method: as §1, §2

OVCAR-8 = assay: NCI-60 in vitro tumor cell growth inhibition, OVCAR-8 (ovarian cancer); assay type: cell-based; settings: Homo sapiens, five concentration levels
Method: as §1, §2

HepG2 cells = assay: Cell cycle analysis by flow cytometry (PI staining); assay type: cell-based, human; settings: HepG2, 24 h treatment
Method: The distribution of HepG2 cells in the cell cycle phases after 24 h treatment with the two norptopsentin analogues, was assessed by flow cytometric analysis after staining of DNA with PI.
Cell cycle stage was analyzed by flow cytometry. Aliquots of 1 × 10^6 cells were harvested by centrifugation, washed with PBS and incubated in the dark in a PBS solution containing 20 μg/mL propidium iodide (PI) and 200 μg/mL RNase, for 30 min, at room temperature. Then samples were subjected to fluorescence-activated cell sorting (FACS) analysis by Epics XL™ flow cytometer using Expo32 software (Beckman Coulter, Fullerton, CA, USA). At least 1 × 10^4 cells were analyzed for each sample.

PC-3 = assay: NCI-60 in vitro tumor cell growth inhibition, PC-3 (prostate cancer); assay type: cell-based; settings: Homo sapiens, five concentration levels
Method: as §1, §2

U251 = assay: NCI-60 in vitro tumor cell growth inhibition, U251 (CNS cancer); assay type: cell-based; settings: Homo sapiens, U-251, five concentration levels
Method: as §1, §2

DU-145 = assay: NCI-60 in vitro tumor cell growth inhibition, DU-145 (prostate cancer); assay type: cell-based; settings: Homo sapiens, five concentration levels
Method: as §1, §2

TK-10 = assay: NCI-60 in vitro tumor cell growth inhibition, TK-10 (renal cancer); assay type: cell-based; settings: Homo sapiens, five concentration levels
Method: as §1, §2

OVCAR-3 = assay: NCI-60 in vitro tumor cell growth inhibition, OVCAR-3 (ovarian cancer); assay type: cell-based; settings: Homo sapiens, five concentration levels
Method: as §1, §2

KM12 = assay: NCI-60 in vitro tumor cell growth inhibition, KM12 (colon cancer); assay type: cell-based; settings: Homo sapiens, five concentration levels
Method: as §1, §2

EKVK = assay: NCI-60 in vitro tumor cell growth inhibition, EKVK (non-small cell lung cancer); assay type: cell-based; settings: Homo sapiens, five concentration levels
Method: as §1, §2

[1] = tested on: leukemia cancer subpanel cell lines; assay: NCI-60 screen, leukemia subpanel summary; assay type: cell-based; settings: Homo sapiens; range over the leukemia subpanel; read-out: GI50 of all the leukemia subpanel cell lines (range)
Method: as §1, §2

SK-OV-3 = assay: NCI-60 in vitro tumor cell growth inhibition, SK-OV-3 (ovarian cancer); assay type: cell-based; settings: Homo sapiens, five concentration levels
Method: as §1, §2

HCC-2998 = assay: NCI-60 in vitro tumor cell growth inhibition, HCC-2998 (colon cancer); assay type: cell-based; settings: Homo sapiens, five concentration levels
Method: as §1, §2

HCT-15 = assay: NCI-60 in vitro tumor cell growth inhibition, HCT-15 (colon cancer); assay type: cell-based; settings: Homo sapiens, five concentration levels
Method: as §1, §2

Structure (SMILES) | GI50 (MALME-3M) | GI50 (HOP-62) | GI50 (SNB-19) | GI50 (HL-60(TB)) | GI50 (A498) | GI50 (OVCAR-4) | GI50 (LOX IMVI) | GI50 (CAKI-1) | GI50 (786-0) | GI50 (SF-268) | GI50 (COLO-205) | GI50 (CCRF-CEM) | GI50 (NCI-H23) | GI50 (MOLT-4) | GI50 (SF-539) | GI50 (SK-MEL-28) | GI50 (K-562) | GI50 (NCI/ADR-RES) | GI50 (NCI-H460) | GI50 (SK-MEL-2) | also measured
Cn1cc(-c2csc(-c3cn(C)c4ncccc34)n2)c2ccccc21 [Compound 3d, 1-Methyl-3-[4-(1-methyl-1H-indol-3-yl)-1,3-thiazol-2-yl]-1H-pyrrolo[2,3-b]pyridine] | 1040 nM | 810 nM | 630 nM | 290 nM | 500 nM | 7220 nM | 540 nM | 380 nM | 970 nM | 2440 nM | 190 nM | 400 nM | 720 nM | 670 nM | 180 nM | 1200 nM | 70 nM | 90 nM | 300 nM | 580 nM | GI50 (UACC-257): 13000 nM; GI50 (HOP-92): 350 nM; GI50 (MDA-MB-435): 30 nM; GI50 (HS 578T): 590 nM; GI50 (RXF393): 330 nM; GI50 (UACC-62): 300 nM; GI50 (SR): 60 nM; GI50 (OVCAR-8): 660 nM; distribution of HepG2 cells in the cell cycle phases (HepG2 cells): significant dose-dependent decrease in the percentage of cells in the G0/G1 and S phases, accompanied by a concomitant percentage increase of cells in the G2/M phase, and appearance of a subG1-cell population; GI50 (PC-3): 460 nM; GI50 (U251): 410 nM; GI50 (DU-145): 390 nM; GI50 (TK-10): 600 nM; GI50 (OVCAR-3): 100 nM; GI50 (KM12): 210 nM; GI50 (EKVK): 910 nM; GI50 [1]: 60 to 670 nM; GI50 (SK-OV-3): 570 nM; GI50 (HCC-2998): 1130 nM; GI50 (HCT-15): 170 nM
Cn1cc(-c2nc(-c3c[nH]c4ccccc34)cs2)c2cccnc21 [Compound 3k, 3-[4-(1H-Indol-3-yl)-1,3-thiazol-2-yl]-1-methyl-1H-pyrrolo[2,3-b]pyridine] | 740 nM | 930 nM | 640 nM | 320 nM | 370 nM | 520 nM | 510 nM | 440 nM | 720 nM | 940 nM | 190 nM | 430 nM | 670 nM | 660 nM | 250 nM | 760 nM | 120 nM | 150 nM | 370 nM | 410 nM | GI50 (UACC-257): 14200 nM; GI50 (HOP-92): 310 nM; GI50 (MDA-MB-435): 40 nM; GI50 (HS 578T): 660 nM; GI50 (RXF393): 520 nM; GI50 (UACC-62): 420 nM; GI50 (SR): 140 nM; GI50 (OVCAR-8): 820 nM; distribution of HepG2 cells in the cell cycle phases (HepG2 cells): significant dose-dependent decrease in the percentage of cells in the G0/G1 and S phases, accompanied by a concomitant percentage increase of cells in the G2/M phase, and appearance of a subG1-cell population; GI50 (PC-3): 560 nM; GI50 (U251): 430 nM; GI50 (DU-145): 560 nM; GI50 (TK-10): 990 nM; GI50 (OVCAR-3): 250 nM; GI50 (KM12): 400 nM; GI50 (EKVK): 910 nM; GI50 [1]: 120 to 660 nM; GI50 (SK-OV-3): 520 nM; GI50 (HCC-2998): 1180 nM; GI50 (HCT-15): 290 nM
